These results are taken from article PMC3259259 (Chemical Research in Toxicology, 2011).

Each structure is given as a SMILES string. Like-named read-outs stand apart in the source and are kept apart here.

Data set [1] can be described thus: Single-turnover. The conditions noted are these: read-out: Kd (incoming nucleotide, Pol•DNA complex), Pol β, 37 °C. Set-up: species or system [13, 20].
A short description of data set [2]: Single-turnover. Set-up: species or system [13, 20]. The conditions noted are these: read-out: Kd (incoming nucleotide, Pol•DNA complex), Pol λ, 37 °C.
The nature of data set [3]: Single-turnover. More on the design: species or system [13, 20]. As to conditions: read-out: Kd (incoming nucleotide, Pol•DNA complex), Pol η, 37 °C.
Data set [4] can be described thus: Single-turnover. Set-up: species or system [13, 20]. The conditions noted are these: Pol κ; for Kd: read-out: Kd (incoming nucleotide, Pol•DNA complex), 37 °C.
Data set [5] is described as follows: Single-turnover. Set-up: species or system [13, 20]. As to conditions: Pol ι; for Kd: read-out: Kd (incoming nucleotide, Pol•DNA complex), 37 °C.
Data set [6] in a line: Single-turnover. More on the design: species or system [13, 20]. The conditions noted are these: Rev1; for Kd: read-out: Kd (incoming nucleotide, Pol•DNA complex).
For data set [7] the following is noted: read-out: Kd (incoming nucleotide, Pol•DNA complex), Pol β, 37 °C, cited from earlier work.
For data set [8] the following is noted: read-out: Kd (incoming nucleotide, Pol•DNA complex), Pol λ, 37 °C, cited from earlier work.
The conditions of data set [9]: read-out: Kd (incoming nucleotide, Pol•DNA complex), Pol η, 37 °C, cited from earlier work.
The conditions of data set [10]: read-out: Kd (incoming nucleotide, Pol•DNA complex), Pol κ, 37 °C, cited from earlier work.
For data set [11] the following is noted: Pol ι, 37 °C, cited from earlier work; for Kd: read-out: Kd (incoming nucleotide, Pol•DNA complex).
For data set [12] the following is noted: Rev1, 37 °C, cited from earlier work; for Kd: read-out: Kd (incoming nucleotide, Pol•DNA complex).
The conditions of data set [13]: read-out: Kd (incoming nucleotide, Pol•DNA complex), Pol γ, 37 °C, cited from earlier work.
For data set [14] the following is noted: read-out: Kd (incoming nucleotide, Pol•DNA complex); T7 exo; opposite template dT; 37 °C; cited from earlier work.
The nature of data set [15]: Single-turnover kinetic assays, summary over the non-canonical human pols. Set-up: species or system [13, 20].
For data set [16] the following is noted: read-out: Kd (incoming nucleotide, Pol•DNA complex); HIV-1 RT; opposite template dC; 37 °C; cited from earlier work.
The conditions of data set [17]: Pols β, λ, η, ι, κ, Rev1; cited from earlier work.

On to `Nc1ncnc2c1ncn2CCOCP(=O)(O)OP(=O)(O)OP(=O)(O)O` [PMEA-DP, diphosphate of 9-[2-(phosphonomethoxy)ethyl]adenine], for which the Kd stood at 65 ± 6 µM in “Single-turnover [1]” (opposite template dT); 4.5 ± 0.3 µM in “Single-turnover [2]” (opposite template dT (21-19C-41merTG)); 55 ± 18 µM in “Single-turnover [3]” (opposite template dT); 23 ± 3 µM in “Single-turnover [4]” (opposite template dT); 180 ± 40 µM in “Single-turnover [5]” (opposite template dT); 120 ± 20 µM in “Single-turnover [6]” (opposite template dT, 37 °C). Further, the “Decrease of rate of incorporation relative to dATP” value in “Single-turnover [4]” (opposite template dT) stood at 60 fold; in the data set “Single-turnover [5]” (opposite template dT) it was 30 fold; in “Single-turnover [6]” (opposite template dT), 4 fold. Besides, the “Ground-state binding affinity (1/Kd) weaker than dATP” value in “Single-turnover [4]” (opposite template dT) is reported as 3 fold; in the data set “Single-turnover [6]” (opposite template dT), 60 fold. Besides, in “Single-turnover [5]” (opposite template dT), the “Ground-state binding affinity (1/Kd) relative to dATP” value is reported as “unchanged”.
As to `Nc1ncnc2c1ncn2[C@H]1C[C@H](O)[C@@H](COP(=O)(O)OP(=O)(O)OP(=O)(O)O)O1` [dATP], the Kd in [7] (opposite template dT) is 9.2 ± 1 µM; in [8] (opposite template dT) it was 0.9 ± 0.3 µM; in [9] (opposite template dT), 130 ± 30 µM; in data set [10] (opposite template dT), 7 ± 1 µM; in [11] (opposite template dT), 260 ± 40 µM; in data set [12] (opposite template dT) it was 2 ± 0.3 µM. In addition, the Kd was 0.8 ± 0.1 µM in [13] (opposite template dT) and 8 ± 2 µM in data set [14].
Consider `C=C1[C@H](COP(=O)(O)OP(=O)(O)OP(=O)(O)O)[C@@H](O)C[C@@H]1n1cnc2c(=O)[nH]c(N)nc21` [ETV-TP, entecavir 5′-triphosphate], for which the Kd in the data set “Single-turnover [1]” (opposite template dC) was 0.26 ± 0.04 µM; in “Single-turnover [2]” (opposite template dC), 0.09 ± 0.02 µM; in “Single-turnover [3]” (opposite template dC), 2.4 ± 0.4 µM; in “Single-turnover [4]” (opposite template dC), 4.2 ± 0.1 µM; in the data set “Single-turnover [5]” (opposite template dC), 33 ± 5 µM; in “Single-turnover [6]” (opposite template dC, 37 °C) it was 56 ± 10 µM. In [16], the Kd was 2.23 ± 0.67 µM. Also, the “Rate of incorporation slower than dGTP, on average” value in data set [15] (Pols β, λ, η, ι, κ, Rev1) is recorded as 120 fold. Besides, in data set [15] (except for Rev1), the “Binding affinity tighter than dGTP, on average” value is “approximately 20 fold”.
`Nc1nc2c(ncn2[C@H]2C[C@H](O)[C@@H](COP(=O)(O)OP(=O)(O)OP(=O)(O)O)O2)c(=O)[nH]1` [dGTP]: the Kd was 8.7 ± 0.4 µM in “Single-turnover [1]” (opposite template dC); 80 ± 10 µM in “Single-turnover [3]” (opposite template dC); 10.6 ± 0.9 µM in the data set “Single-turnover [4]” (opposite template dC); 141 ± 8 µM in “Single-turnover [5]” (opposite template dC); 3.9 ± 0.8 µM in the data set “Single-turnover [6]” (opposite template dC, 37 °C); 2.1 ± 0.3 µM in [8] (opposite template dC). Further, the Kd in data set [16] was 1.76 ± 0.51 µM.
With `Nc1ccn([C@H]2C[C@H](O)[C@@H](COP(=O)(O)OP(=O)(O)OP(=O)(O)O)O2)c(=O)n1` [dCTP], the Kd was 0.71 ± 0.04 µM in data set [7] (opposite template dG); 0.9 ± 0.1 µM in data set [8] (opposite template dG); 25 ± 4 µM in data set [9] (opposite template dG); 32 ± 5 µM in data set [10] (opposite template dG); 50 ± 5 µM in data set [11] (opposite template dG); 2.2 ± 0.3 µM in data set [12] (opposite template dG). In data set [13] (opposite template dG), the Kd is 1.1 ± 0.1 µM.
Take `Nc1ccn([C@H]2CS[C@@H](COP(=O)(O)OP(=O)(O)OP(=O)(O)O)O2)c(=O)n1` [L-3TC-TP, β-L-2′,3′-dideoxy-3′-thiacytidine 5′-triphosphate]: the Kd in data set [7] (opposite template dG) was 0.18 ± 0.02 µM; in [8] (opposite template dG), 0.106 ± 0.01 µM; in data set [9] (opposite template dG), 3.3 ± 0.3 µM; in [10] (opposite template dG) it was 4 ± 0.5 µM; in data set [11] (opposite template dG), 96 ± 8 µM; in [12] (opposite template dG) it was 1.04 ± 0.1 µM. The Kd in data set [13] (opposite template dG) is 9.2 ± 0.9 µM. Moreover, in data set [17], the “Decrease of Kd compared to dCTP, on average” value is listed as 6 fold.
In the case of `Cc1cn([C@@H]2C[C@@H](O)[C@H](COP(=O)(O)OP(=O)(O)OP(=O)(O)O)O2)c(=O)[nH]c1=O` [L-TBV-TP, β-L-2′-deoxythymidine 5′-triphosphate], the Kd in the data set “Single-turnover [1]” (opposite template dA) was 11 ± 1 µM; in “Single-turnover [2]” (opposite template dA), 53 ± 6 µM; in “Single-turnover [3]” (opposite template dA), 400 ± 100 µM; in “Single-turnover [4]” (opposite template dA) it was 90 ± 20 µM; in “Single-turnover [5]” (opposite template dA), 100 ± 30 µM. Moreover, the “Kd (incoming nucleotide, Pol•DNA complex)” value in “Single-turnover [6]” (opposite template dA, 37 °C) is listed as “No observed incorporation”. For the same molecule, in [15] (Pols β, λ, η, ι, κ, Rev1, analog vs its natural dNTP, 37 °C), the “Selection factors, range over the non-canonical human pols” value was “greater than 8,000”. Besides, the “Binding to the Pol•DNA complex weakened compared to dTTP, on average” value in data set [15] (pols other than Rev1) is on record as 10 fold.
For the molecule `Cc1cn([C@H]2C[C@H](O)[C@@H](COP(=O)(O)OP(=O)(O)OP(=O)(O)O)O2)c(=O)[nH]c1=O` [dTTP], the Kd is 3.5 ± 0.5 µM in [7] (opposite template dA); 2.6 ± 0.4 µM in data set [8] (opposite template dA); 41 ± 5 µM in data set [9] (opposite template dA); 11 ± 0.5 µM in data set [10] (opposite template dA); 13 ± 1 µM in data set [11] (opposite template dA); 6 ± 1 µM in data set [12] (opposite template dA).
On to `CC(Cn1cnc2c(N)ncnc21)OCP(=O)(O)OP(=O)(O)OP(=O)(O)O` (stereo not drawn) [PMPA-DP, diphosphate of 9-[2-(phosphonomethoxy)propyl]adenine], for which the Kd in [7] (opposite template dT) was 50 ± 10 µM; in data set [8] (opposite template dT) it was 3.7 ± 0.9 µM; in data set [9] (opposite template dT) it was 90 ± 10 µM; in [10] (opposite template dT), 3000 ± 2000 µM; in data set [13] (opposite template dT), 40.3 ± 5.7 µM; in data set [14] it was 268 ± 39 µM. Moreover, the “Kd (incoming nucleotide, Pol•DNA complex)” value in [11] (opposite template dT) and in data set [12] (opposite template dT) was “No observed incorporation” each time. For the same molecule, the “kp (maximum rate of incorporation)” value in data set [11] (opposite template dT) and in data set [12] (opposite template dT) was “too inefficient to be observed” throughout.
